Molecular target: T1, CFTR (Homo sapiens, UniProt P13569, DEL508-508)
T1 construct: endogenous in cells; host or cells: primary human bronchial epithelial cells from CF subjects (F508del/MF-HBE), differentiated at air-liquid interface
Test: HBE assay: Ussing chamber assay of CFTR-mediated short-circuit currents
Assay type: cell-based
Details: HBE assay; for EC50: read-out: HBE EC50; for Emax: read-out: HBE Max activity (%); for activation at 10 µM: read-out: HBE Activity at 10 μM (%)
In short: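 CFTR-mediated Isc (μA/cm²) equals the peak response to apical 20 μM forskolin minus the residual after a 20 μM each BPO/GlyH-101/CFTR inhibitor 172 cocktail, recorded in Ussing chambers at Vhold 0 mV, 37 °C, pH 7.4, with 30 μM apical amiloride. Cells were F508del/MF HBE cultures preincubated 18-24 h with corrector (concentration range or 10 μM) plus 1 μM ivacaftor in 20% human serum.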

T1 sequence (P13569 with tags, fused parts or gaps DEL508-508): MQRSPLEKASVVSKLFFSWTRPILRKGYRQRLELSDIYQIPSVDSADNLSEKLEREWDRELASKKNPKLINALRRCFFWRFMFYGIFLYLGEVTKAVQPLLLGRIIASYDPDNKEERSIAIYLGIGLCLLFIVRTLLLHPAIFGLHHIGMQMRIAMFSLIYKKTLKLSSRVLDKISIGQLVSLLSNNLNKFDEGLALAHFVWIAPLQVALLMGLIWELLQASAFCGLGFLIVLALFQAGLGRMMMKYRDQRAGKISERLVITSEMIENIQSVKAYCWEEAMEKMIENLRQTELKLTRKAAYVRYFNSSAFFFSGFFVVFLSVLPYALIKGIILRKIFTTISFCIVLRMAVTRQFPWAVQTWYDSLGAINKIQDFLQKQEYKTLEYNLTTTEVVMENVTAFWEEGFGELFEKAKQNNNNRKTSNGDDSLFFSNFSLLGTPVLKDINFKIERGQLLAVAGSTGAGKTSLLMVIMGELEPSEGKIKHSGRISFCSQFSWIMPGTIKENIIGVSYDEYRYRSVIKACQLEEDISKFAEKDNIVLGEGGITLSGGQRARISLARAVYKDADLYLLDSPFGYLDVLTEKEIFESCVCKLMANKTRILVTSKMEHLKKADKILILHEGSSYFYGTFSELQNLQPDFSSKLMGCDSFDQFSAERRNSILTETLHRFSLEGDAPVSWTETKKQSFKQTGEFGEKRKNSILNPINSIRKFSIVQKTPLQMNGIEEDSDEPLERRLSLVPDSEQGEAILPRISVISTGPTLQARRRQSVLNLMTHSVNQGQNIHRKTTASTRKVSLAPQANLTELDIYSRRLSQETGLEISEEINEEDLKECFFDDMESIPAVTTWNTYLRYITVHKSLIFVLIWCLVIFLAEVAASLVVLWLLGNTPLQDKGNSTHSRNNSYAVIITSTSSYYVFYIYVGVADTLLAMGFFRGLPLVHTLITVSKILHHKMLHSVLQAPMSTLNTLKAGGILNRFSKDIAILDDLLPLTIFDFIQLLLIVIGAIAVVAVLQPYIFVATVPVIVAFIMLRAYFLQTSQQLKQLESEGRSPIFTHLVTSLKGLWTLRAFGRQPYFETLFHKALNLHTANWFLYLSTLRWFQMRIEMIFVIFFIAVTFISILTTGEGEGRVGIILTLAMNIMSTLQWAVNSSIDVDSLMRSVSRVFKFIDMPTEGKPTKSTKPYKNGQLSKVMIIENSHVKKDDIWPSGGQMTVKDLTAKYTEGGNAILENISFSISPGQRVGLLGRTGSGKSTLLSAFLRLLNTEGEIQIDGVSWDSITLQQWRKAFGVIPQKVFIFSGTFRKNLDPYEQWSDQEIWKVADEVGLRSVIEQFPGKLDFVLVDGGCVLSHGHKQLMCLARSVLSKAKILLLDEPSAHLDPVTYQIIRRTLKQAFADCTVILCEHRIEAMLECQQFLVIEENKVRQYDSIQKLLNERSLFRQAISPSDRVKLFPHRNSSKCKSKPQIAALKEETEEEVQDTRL

Compound | EC50 | Emax | activation at 10 µM
Cc1cccc(C)c1-c1cc2nc(n1)NS(=O)(=O)c1cccc(c1)C(=O)N(Cc1ccc(OC(F)(F)F)cn1)[C@H](CC(C)(C)C)CO2 [Compound 1412] | < 1 µM | > 60% | –
Cc1cccc(C)c1-c1cc2nc(n1)NS(=O)(=O)c1cccc(c1)C(=O)N(Cc1cccc(N3CCOCC(C)(C)C3)n1)[C@H](CC(C)(C)C)CO2 [Compound 1414] | < 1 µM | > 60% | –
Cc1cccc(C)c1-c1cc2nc(n1)NS(=O)(=O)c1cccc(c1)C(=O)N(Cc1ncc(OCC(F)F)cn1)[C@H](CC(C)(C)C)CO2 [Compound 1416] | < 1 µM | > 60% | –
COCCN(c1cncc(CN2C(=O)c3cccc(c3)S(=O)(=O)Nc3nc(cc(-c4c(C)cccc4C)n3)OC[C@H]2CC(C)(C)C)n1)C1CCC1 [Compound 1417] | < 1 µM | > 60% | –
COCCN(CC(C)C)c1cncc(CN2C(=O)c3cccc(c3)S(=O)(=O)Nc3nc(cc(-c4c(C)cccc4C)n3)OC[C@H]2CC(C)(C)C)n1 [Compound 1418] | < 1 µM | > 60% | –
Cc1cccc(C)c1-c1cc2nc(n1)NS(=O)(=O)c1cccc(c1)C(=O)N(Cc1cccc(NC3CCOCC3)n1)[C@H](CC(C)(C)C)CO2 [Compound 1419] | < 1 µM | > 60% | –
Cc1cccc(C)c1-c1cc2nc(n1)NS(=O)(=O)c1cccc(c1)C(=O)N(Cc1cncc(NC3CCOCC3)n1)[C@H](CC(C)(C)C)CO2 [Compound 1420] | < 1 µM | > 60% | –
Cc1cccc(C)c1-c1cc2nc(n1)NS(=O)(=O)c1cccc(c1)C(=O)N(Cc1cccc(N(C)CC(C)(C)C3CC3)n1)[C@H](CC(C)(C)C)CO2 [Compound 1421] | – | – | > 60%
Cc1cccc(C)c1-c1cc2nc(n1)NS(=O)(=O)c1cccc(c1)C(=O)N(Cc1ncc(OC3CC(C)(C)C3)cn1)[C@H](CC(C)(C)C)CO2 [Compound 1422] | < 1 µM | > 60% | –
Cc1cccc(C)c1-c1cc2nc(n1)NS(=O)(=O)c1cccc(c1)C(=O)N(Cc1ncc(OC3CC(C)(C)C3)cn1)[C@H](CC(C)C)CO2 [Compound 1423] | 1 to 3 µM | > 60% | –
Cc1cccc(C)c1-c1cc2nc(n1)NS(=O)(=O)c1cccc(c1)C(=O)N(Cc1ncc(OC(F)(F)F)cn1)[C@H](CC(C)(C)C)CO2 [Compound 1425] | < 1 µM | > 60% | –
Cc1cccc(C)c1-c1cc2nc(n1)NS(=O)(=O)c1cccc(c1)C(=O)N(Cc1ncc(OC3CCC3)cn1)[C@H](CC1CCC1)CO2 [Compound 1426] | < 1 µM | > 60% | –
Cc1cccc(C)c1-c1cc2nc(n1)NS(=O)(=O)c1cccc(c1)C(=O)N(Cc1cccc(N(C)C(C)C(C)(C)C)n1)[C@H](CC(C)(C)C)CO2 (some centres unmarked) [Compound 1427] | – | – | > 60%
Cc1cccc(C)c1-c1cc2nc(n1)NS(=O)(=O)c1cccc(c1)C(=O)N(Cc1cccc(N3CCC[C@@H]3CC(C)C)n1)[C@H](CC(C)(C)C)CO2 [Compound 1428] | < 1 µM | > 60% | –
Cc1cccc(C)c1-c1cc2nc(n1)NS(=O)(=O)c1cccc(c1)C(=O)N(Cc1ncc(OC(F)F)cn1)[C@H](CC(C)(C)C)CO2 [Compound 1430] | < 1 µM | > 60% | –
Cc1cccc(C)c1-c1cc2nc(n1)NS(=O)(=O)c1cccc(c1)C(=O)N(Cc1ncc(OCC(F)(F)F)cn1)[C@H](CC(C)(C)C)CO2 [Compound 1431] | < 1 µM | > 60% | –
CO[C@H]1C[C@@H](Oc2cnc(CN3C(=O)c4cccc(c4)S(=O)(=O)Nc4nc(cc(-c5c(C)cccc5C)n4)OC[C@H]3CC(C)C)nc2)C1 [Compound 1432] | < 1 µM | > 60% | –
Cc1cccc(C)c1-c1cc2nc(n1)NS(=O)(=O)c1cccc(c1)C(=O)N(Cc1ncc(OC3CCCOC3)cn1)[C@H](CC(C)C)CO2 (some centres unmarked) [Compound 1433] | – | – | > 60%
Cc1cccc(C)c1-c1cc2nc(n1)NS(=O)(=O)c1cccc(c1)C(=O)N(Cc1ncc(O[C@H](C)C(C)C)cn1)[C@H](CC(C)C)CO2 [Compound 1434] | 1 to 3 µM | > 60% | –

— US20240150377A1, “MODULATORS OF CYSTIC FIBROSIS TRANSMEMBRANE CONDUCTANCE REGULATOR” (VERTEX PHARMACEUTICALS INCORPORATED, priority 2020, published 2024)
